Data taken from patent publication US20140296164A1, “Compositions and methods of use for cell targeted inhibitors of the Cystic Fibrosis transmembrane regulator associated ligand” (CALISTA THERAPEUTICS, INC., priority 2013, published 2014).
“Also recorded” adds a separate entry of the source. No end group written: not given here.

Assays:
deltaF508-CFTR [1] = assay: CFTR agonist evoked short circuit (ISC) current, Ussing epithelial voltage clamp; assay type: cell-based, human; details: for summed ISC currents compared with Vehicle treatment: apical, one day at 27° C., CFFT006F cells, Dunnett's test
Source text: To test for bioeffectiveness, for our exemplary invention to stabilize CFTR, we measured the chloride transport function homozygous deltaF508-CFTR cystic fibrosis human bronchial epithelial cells grown and differentiated on Snapwell™ filter inserts as CFTR agonist evoked short circuit (ISC) current. The ISC was the output of an Ussing epithelial voltage clamp apparatus after amiloride block of sodium current through the epithelial sodium channel (ENaC). ENaC current was monitored as the amiloride sensitive current component of the ISC. The objective of this study was to measure the ability of various compounds, including but limited to CT002, CT008, CT003, CT004, CT005, CT006, CT007, and AT0011 (peptide control), to restore function to defective deltaF508-CFTR in CFhBE cell monolayers (epithelia) after a one day incubation period on the apical surface of the epithelia. See FIG. 4 for sequences and ID numbers.
(§1) CT003, CT004, CT005, CT006, CT007, and AT0011 were combined with the known corrector VX-809. CT002 (WQVTRV) was incubated with 10 μL of the cell permeability enhancing reagent BioPORTER™. Statistical comparisons were made using Dunnett's test and Student's t-test with significance evaluated at P<0.05. The ISC current polarity convention used here records apical to basolateral sodium current and basolateral to apical chloride current as negative.
Referring now to the drawings, a first exemplary embodiment is illustrated and generally indicated in FIGS. 1, 2 and 3, which is the measurement of the chloride transport function of homozygous deltaF508-CFTR cystic fibrosis human bronchial epithelial cells grown and differentiated on Snapwell™ filter inserts as CFTR agonist evoked short circuit (ISC) current. The ISC was the output of an Ussing epithelial voltage clamp apparatus after amiloride block of sodium current through the epithelial sodium channel (ENaC). ENaC current was monitored as the amiloride sensitive current component of the ISC. The objective of this study was to measure the ability of candidate Test Articles and controls (CT002 (WQVTRV+BIOPORTER), CT008 (WQVTRV alone), CT003, CT004, CT005, CT006, CT007, and AT0011 control) to restore function to defective deltaF508-CFTR in CFhBE cell monolayers (epithelia) after a one day incubation period on the apical surface of the epithelia. These peptide compounds differed in their amino acid sequence to optimize solubility, intracellular permeability, stability and toxicity (CT003-CT007 shown here). The control peptides were non-optimized sequences (CT002 and CT008) and an off-target peptide control (AT0011).
as §1, with “VX-809 and” for “VX-809.”, “CT002” for “CT002 (WQVTRV)”, “used” for “used here”
All incubations were performed at 27±0.5° C. Test Articles were applied at their final concentrations to the apical surface of the cellular monolayers in 200 μL of Opti-MEM Reduced Serum Medium without addition of serum. […] Test Article incubations were approximately 24 hours. 150 μL of cycloheximide (20 μg/mL) was applied to the apical surface of the epithelia for the final 2 hours of peptide treatment, total volume 350 μL. Cycloheximide prevented new protein synthesis that might be otherwise conflated with test article efficacy. This incubation protocol mimics the dilution and clearance effect that will be encountered by topical delivery to the lungs. Test articles are applied at t=0 h, 10 μM in 200 μL, to the apical surface. 2000 μL of basolateral medium provides an immediate dilution effect (test article: 0.91 μM), then at t=22 h, a further […] of cycloheximide containing solution is further added, (test article: 0.85 μM). […]

deltaF508-CFTR [2] = details: cited from earlier work
[3] = system: epithelial sodium channel (ENaC); assay: Amiloride sensitive sodium current component of the ISC, Ussing assay; assay type: cell-based, human; details: Test Article 10 uM + VX-809 1 uM, Student's test
Source text: To test for bioeffectiveness, for our exemplary invention to stabilize CFTR, we measured the chloride transport function homozygous deltaF508-CFTR cystic fibrosis human bronchial epithelial cells grown and differentiated on Snapwell™ filter inserts as CFTR agonist evoked short circuit (ISC) current. The ISC was the output of an Ussing epithelial voltage clamp apparatus after amiloride block of sodium current through the epithelial sodium channel (ENaC). ENaC current was monitored as the amiloride sensitive current component of the ISC. […]
Referring now to the drawings, a first exemplary embodiment is illustrated and generally indicated in FIGS. 1, 2 and 3, which is the measurement of the chloride transport function of homozygous deltaF508-CFTR cystic fibrosis human bronchial epithelial cells grown and differentiated on Snapwell™ filter inserts as CFTR agonist evoked short circuit (ISC) current. […] ENaC current was monitored as the amiloride sensitive current component of the ISC. […]
Ussing Assay: All Ussing assays were performed at 27±0.5° C. and lasted for approximately 1 hour 40 minutes. The temperature was monitored throughout the experiment using a thermistor probe connected to the data acquisition system and inserted into the bath solution of one chamber. […]

[4] = Solubility of peptide sequences; assay type: physicochemical
[5] = Test Article 10 uM + VX-809 1 uM, Student's t-test

Cc1ccc(NC(=O)C2(c3ccc4c(c3)OC(F)(F)O4)CC2)nc1-c1cccc(C(=O)O)c1 [VX-809, reference compound]
summed ISC currents compared with Vehicle treatment (deltaF508-CFTR [1]; VX-809 1 μM alone): significantly above Vehicle treatment
summed ISC currents compared with expected level (deltaF508-CFTR [1]; VX-809 1 μM, apical incubation only, not in basolateral media): less than the expected level

ANSRWPTSII
function without BIOPORTER (deltaF508-CFTR [2]): neither sequence functions

Acety-YGRKKRRQRRR-glycoyl-WQVTRV-amide (Ac-YGRKKRRQRRR; not fully specified (C-terminus)) [CT007]
lower concentration needed versus prior sequences with BIOPORTER (deltaF508-CFTR [1]; 10 μM CT007 vs 500 μM WQVTRV): > 50 times
improvement in reported efficacy versus WQVTRV and ANSRWPTSII with BIOPORTER (deltaF508-CFTR [1]; 10 uM vs 500 μM, at least): fifty-fold
additive efficacy to VX-809 (deltaF508-CFTR [1]; CT007 10 uM + VX-809 1 uM, CF bronchial epithelium, n=4): 36%
response to CFTRinh-172 compared with VX-809 1 uM (deltaF508-CFTR [1]; [5]): significantly increased
summed ISC currents (CFTR chloride current restoration) compared with VX-809 1 μM treatment (deltaF508-CFTR [1]; [5]): significantly greater; also recorded: significantly above VX-809 1 μM treatment
summed ISC currents compared with Vehicle treatment (deltaF508-CFTR [1]; Test Article 10 uM + VX-809 1 uM): significantly above Vehicle treatment
duration of therapeutic drug action (deltaF508-CFTR [1]; after transient topical apical dosing, test article removed before Ussing assay): at least 26 hours
amiloride sensitive sodium current generated by ENaC compared to VX-809 alone [3]: significantly increased

WQVTRV [CT008, WQVTRV]
solubility at the effective concentration ([4]; 500 μM): largely insoluble
solubility in water ([4]; water / aqueous fluids): insoluble in water
